Data published in the supplement of paper PMC11208160.

test: recombinant UMI read abundance after kanamycin selection (control-corrected) (log10(CPM+1)); higher = more efficient recombination; extreme values may be limits of the assay; sequences stand for … in AGTGCAGAGAAAATCGGCCAGTTTTCTCTGCCTGCAGTCCGCATGCCGTGGGACCCCTTGGGTTCTAACCTGTTGCCTAGATTTATGCAGCGGACTGCCTTTCTCCCAAAGTGATAAACCGG…AGGTTGGTTTCACT; site = the 11-nt donor
Outline: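 In a pooled Escherichia coli screen for the IS621 bridge recombinase, donor and donor-binding-loop pairs were each placed with a 12-nt UMI on a plasmid bearing a promoterless kanamycin gene. This library was co-electroporated with a target plasmid encoding a fixed target and T7-inducible recombinase, and cells were plated either on IPTG (0.07 mM) plus kanamycin or without selection, in two replicates each. Recombinant UMIs were PCR-amplified across the donor–target junction and sequenced, and counts were converted to CPM, averaged over replicates, scaled by control-derived factors and reported as log10(CPM+1).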
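Further: IS621 bridge recombinase in Escherichia coli cells against a fixed T5 target plasmid.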

Sequence	recombinant UMI read abundance (log10)
CGATTATCATGGACCGGTTTTCCCGGTAATCCGTATTTGCA (site CGATTATCTTG)	2.39
CGATTATCATGGACCGGTTTTCCCGGTAATCCGTATTTGTT (site CGATCATCTAG)	0
CGATTATCATGGACCGGTTTTCCCGGTAATCCGTATTTGTT (site CGATTATCTAA)	2.45
CGATTTACATGGACCGGTTTTCCCGGTAATCCGTATTTGCT (site CGATTTACTAG)	1.76
CGCAATCCATGGACCGGTTTTCCCGGTAATCCGTATTTGAG (site CGCAATCCTCT)	0.964
CGCACATCATGGACCGGTTTTCCCGGTAATCCGTATTTGCT (site CGAACATCTAG)	0
CGCACATCATGGACCGGTTTTCCCGGTAATCCGTATTTGCT (site CGCACATCTAG)	1.02
CGCACATCATGGACCGGTTTTCCCGGTAATCCGTATTTGCT (site CGGACATCTAG)	0
CGCACATCATGGACCGGTTTTCCCGGTAATCCGTATTTGCT (site CGTACATCTAG)	0
CGCACTCCATGGACCGGTTTTCCCGGTAATCCGTATTTGTT (site CGCACTCCTAA)	0.808
CGCACTCCATGGACCGGTTTTCCCGGTAATCCGTATTTGTT (site CGGAATCCTAA)	0
CGCATCACATGGACCGGTTTTCCCGGTAATCCGTATTTGCC (site CGCATCACTGG)	1.78
CGCATCTCATGGACCGGTTTTCCCGGTAATCCGTATTTGTG (site CGCATCTCTCA)	1.83
CGCATGCCATGGACCGGTTTTCCCGGTAATCCGTATTTGCA (site CGCATGCCTTG)	0.808
CGCCACACATGGACCGGTTTTCCCGGTAATCCGTATTTGTA (site CACCACACTTA)	0.727
CGCCACACATGGACCGGTTTTCCCGGTAATCCGTATTTGTA (site CCCCACACTTA)	0.261
CGCCACACATGGACCGGTTTTCCCGGTAATCCGTATTTGTA (site CGCCACACTTA)	1.95
CGCCACACATGGACCGGTTTTCCCGGTAATCCGTATTTGTA (site CTCCACACTTA)	0.241
CGCCATACATGGACCGGTTTTCCCGGTAATCCGTATTTGCT (site CGCCATACTAG)	1.64

Sequence	recombinant UMI read abundance (log10)
CGCCATACATGGACCGGTTTTCCCGGTAATCCGTATTTGCT (site CGCCCTACTAG)	0.00847
CGCCATACATGGACCGGTTTTCCCGGTAATCCGTATTTGCT (site CGCCGTACTAG)	0
CGCCATACATGGACCGGTTTTCCCGGTAATCCGTATTTGCT (site CGCCTTACTAG)	0.046
CGCCGCTCATGGACCGGTTTTCCCGGTAATCCGTATTTGCC (site CGCCGCTCTGG)	2.47
CGCCTAACATGGACCGGTTTTCCCGGTAATCCGTATTTGGG (site CGCCTAACTCC)	0.0879
CGCGAACCATGGACCGGTTTTCCCGGTAATCCGTATTTGAT (site CGAGAACCTAT)	0
CGCGAACCATGGACCGGTTTTCCCGGTAATCCGTATTTGAT (site CGCGAACCTAT)	0
CGCGAACCATGGACCGGTTTTCCCGGTAATCCGTATTTGAT (site CGGGAACCTAT)	0
CGCGAACCATGGACCGGTTTTCCCGGTAATCCGTATTTGAT (site CGTGAACCTAT)	0
CGCGATTCATGGACCGGTTTTCCCGGTAATCCGTATTTGGC (site CGCGATTCTGC)	1.61
CGCGCGCCATGGACCGGTTTTCCCGGTAATCCGTATTTGAG (site CGCGCGCCTCT)	0.0359
CGCGGTACATGGACCGGTTTTCCCGGTAATCCGTATTTGCT (site CGCAGTACTAG)	1.64
CGCGGTACATGGACCGGTTTTCCCGGTAATCCGTATTTGCT (site CGCCGTACTAG)	0
CGCGGTACATGGACCGGTTTTCCCGGTAATCCGTATTTGCT (site CGCGGTACTAG)	1.92
CGCGGTACATGGACCGGTTTTCCCGGTAATCCGTATTTGCT (site CGCTGTACTAG)	0.467
CGCGTCACATGGACCGGTTTTCCCGGTAATCCGTATTTGAC (site CGCGTCACTGT)	2.44
CGCGTGTCATGGACCGGTTTTCCCGGTAATCCGTATTTGAC (site CGCGTGTCTGT)	0
CGCTAATCATGGACCGGTTTTCCCGGTAATCCGTATTTGCT (site CGATCATCTAG)	0
